# Entries after “also recorded” stand apart in the source; their conditions may differ.
# Key:
# [1] = tested on: surgical incision pain model; conditions: mice; cited from earlier work
# periodontitis = conditions: compared with ketoprofen (parent drug); cited from earlier work
# [2] = tested on: cyclophosphamide (CYP)-induced interstitial cystitis; test: Mechanical allodynia (electronic von Frey) in CYP-induced cystitis mice; assay type: in vivo, male C57BL/6 SPF mice; conditions: for reversal of abdominal mechanical allodynia (withdrawal threshold, AUC 21 to 24 h after CYP): 21 h after CYP
# Experimental: Experiments were conducted with male C57BL/6 SPF mice (6-10 weeks of age) obtained from the animal care facilities at the Faculty of Medicine, University of Sao Paulo, Brazil. Mice were randomly separated into different treatment groups (n=5 to 7 per group). Groups of five or fewer mice were kept in Perspex cages under standard controlled conditions (22° C.; 12/12 h light/dark cycle) with free access to food (Nuvilab CR-1, Quimtia S/A, Brazil) and filtered tap water. The study was performed in agreement with the guidelines from the Brazilian Council for Control of Animal Experimentation (CONCEA) guidelines, consistent with the Animal Welfare Act. All the experimental protocols were approved by the local ethics committee (CEUA—ICB; protocol n ° 2055050819). According to the internal laboratory rules, euthanasia was performed if severe distress related to the test agents developed during the experiment.
# Cystitis was induced by a single i.p. injection of cyclophosphamide CYP (300 mg kg^−1; Oliveira et al., 2018), while the control group received an i.p. injection of saline (10 ml kg^−1). […] The drugs were dissolved in 0.5% CMC at a concentration of 10 ml/kg^−1.
# The mice were individually placed in a clear Perspex testing chamber (11 cm×9.5 cm×18 cm) on an elevated wire grid platform (0.5 cm2 grid) for an adequate acclimatization (˜1 h). Mechanical sensitivity assessment was performed with the aid of an electronic von Frey apparatus (Insight Inc., Ribeiräo Preto, SP, Brazil) with groups of 5-7 mice each, as described previously (Costa et al., 2020). Force-generating pressure was applied to the lower abdomen in the vicinity of the bladder (pelvic region between the urethra and the anus) with a pressure transducer connected to a digital force detector (Insight Ltd, Ribeiräo Preto/SP, Brazil). Retraction of the abdomen (mechanical allodynia) from the probe was considered as a positive response to the stimuli and were recorded in grams (g). […] All mechanical sensitivity testing was performed in a blinded manner. Response threshold data were analyzed via analysis of variance (ANOVA) followed by Tukey's post hoc test. All mice were euthanized with an overdose of isoflurane followed by cervical dislocation.
# bladder strips = test: Bladder functional assay in vitro (bladder strips from treated CYP-cystitis mice); assay type: in vivo, male C57BL/6 SPF mice; conditions: for reduced contractile response of CYP bladder strips to KCl (80 mM): improvement: bladders taken 24 h after CYP
# Experimental: The drugs were dissolved in 0.5% CMC at a concentration of 10 ml/kg^−1.
# After 24 h, mice with CYP-induced cystitis were euthanized and the bladders were immediately transferred into a petri-dish. […] The bladders were divided into two longitudinal strips and mounted in an isolated organ bath system (Panlab Harvard, Massachussetts, USA) containing Krebs Henseleit solution at 37° C. (pH 7.4, O2/CO2 […] v/v) under a resting tension of 5 mN. Tissues were allowed to stabilize for 1 h, and during this period the bathing solution was replaced every 15 min. Isometric force was recorded using a PowerLab 8/30 Data Acquisition System (Software Chart, version 6.0, ADInstrument, Milford, MA, USA).
# gastric mucosa = test: Assessment of gastric lesions in IC/BPS mice; assay type: in vivo, male C57BL/6 SPF mice; conditions: 3 h after oral dose, compound of Formula I 77 mg kg^-1 / ketoprofen 50 mg kg^-1 (equimolar)
# Experimental: Briefly, mice from distinct experimental groups were euthanized by cervical dislocation under isoflurane anesthesia, and the stomach was excised, opened along the smaller curvature, rinsed gently with saline and then photographed with a digital camera (Samsung Galaxy S20, Campinas/SP, Brazil). The hemorrhagic gastric lesion area was measured blindly (mm^2) using computerized planimetry software (ImageJ, Maryland, USA).
# [3] = in vivo; cited from earlier work
structure (smiles),measurement,setting,value
"CC(C(=O)Oc1ccc(C(N)=S)cc1)c1ccc(C(=O)c2ccccc2)cc1 (centres unmarked) [compound of Formula I, 4-thiocarbamoylphenyl 2-(4-oxophenyl)-phenyl propanoate]",efficacy over ketoprofen in surgical incision pain model,[1],increased efficacy
same,potency and effectiveness in periodontitis versus parent drug,periodontitis,more potent and effective
same,"reversal of abdominal mechanical allodynia (withdrawal threshold, AUC 21 to 24 h after CYP)","[2]; equimolar dose compound of Formula I 15 mg kg^-1 / ketoprofen 10 mg kg^-1, p.o., vs CYP + CMC 0.5%",significant dose-dependent differences
same,"reversal of abdominal mechanical allodynia (withdrawal threshold, AUC 21 to 24 h after CYP)","[2]; equimolar dose compound of Formula I 46 mg kg^-1 / ketoprofen 30 mg kg^-1, p.o., vs CYP + CMC 0.5%",significant dose-dependent differences
same,"reversal of abdominal mechanical allodynia (withdrawal threshold, AUC 21 to 24 h after CYP)","[2]; equimolar dose compound of Formula I 77 mg kg^-1 / ketoprofen 50 mg kg^-1, p.o., vs CYP + CMC 0.5%",significant dose-dependent differences
same,analgesic effect as compared to equimolar ketoprofen (mechanical allodynia AUC),"[2]; highest equimolar dose, 77 mg kg^-1 p.o. vs ketoprofen 50 mg kg^-1, P<0.001",enhanced analgesic effects
same,"anti-hyperalgesic effect on decreased abdominal withdrawal threshold (mechanical allodynia, AUC 21 to 24 h after CYP)","[2]; lowest equimolar dose (compound of Formula I 4.6 mg kg^-1 / ketoprofen 3 mg kg^-1), p.o., 21 h after CYP 300 mg kg^-1 i.p., vs CYP + CMC 0.5%",no an anti-hyperalgesic effect
same,"potency compared with ketoprofen (abdominal hyperalgesic state and bladder contractile response, CYP-induced IC/BPS model)",[2]; orally administered as a single dose,greater than that of ketoprofen
same,reduced contractile response of CYP bladder strips to KCl (80 mM): improvement,"bladder strips; equimolar dose compound of Formula I 15 mg kg^-1 / ketoprofen 10 mg kg^-1 p.o., vs CYP control",significantly and dose-dependently increased
same,reduced contractile response of CYP bladder strips to KCl (80 mM): improvement,"bladder strips; equimolar dose compound of Formula I 46 mg kg^-1 / ketoprofen 30 mg kg^-1 p.o., vs CYP control",significantly and dose-dependently increased
same,reduced maximal (Emax) contractile response elicited by carbachol (CCh) in bladder strips of IC/BPS mice: improvement,bladder strips; high doses (compound of Formula I 77 mg kg^-1 / ketoprofen 50 mg kg^-1 p.o.),significantly increased
same,reduced contractile response of CYP bladder strips to KCl (80 mM): improvement,bladder strips; high doses: compound of Formula I 77 mg kg^-1 / ketoprofen 50 mg kg^-1 p.o.,neither compound of Formula I (77 mg kg^−1) nor ketoprofen (50 mg kg^−1) significantly improved
same,hemorrhagic gastric lesions (gastric mucosal hemorrhagic injury),gastric mucosa,did not; also recorded: normal gastric mucosa
same,GI safety compared to ketoprofen,[3],increased GI safety
